Experimental data: the supplement of paper PMC10307832

Legend:
Assay in all cases: relative viability (nuclei count vs DMSO), 5 days (fraction); higher = more cells survive
Wnt-C59 + Olaparib = compound: CC1=NC=CC(=C1)C2=CC=C(C=C2)CC(=O)NC3=CC=C(C=C3)C4=CN=CC=C4 [Wnt-C59] + O=C(c1cc(Cc2n[nH]c(=O)c3ccccc23)ccc1F)N1CCN(C(=O)C2CC2)CC1 [Olaparib] (partner 8 µM)
Summary of the method: (§1)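 Five library-drug doses in √10 steps were combined with a fixed anchor-drug dose, or a single drug was given alone, by pin tool to lung cancer cell lines in 1536-well plates the day after seeding. Nuclei were stained and counted after 5 days. Relative viability is the nuclei count in treated wells over that in vehicle wells, taken as the median of duplicate plates.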

Wnt-C59 + Navitoclax = compound: CC1=NC=CC(=C1)C2=CC=C(C=C2)CC(=O)NC3=CC=C(C=C3)C4=CN=CC=C4 [Wnt-C59] + CC1(C)CCC(c2ccc(Cl)cc2)=C(CN2CCN(c3ccc(C(=O)NS(=O)(=O)c4ccc(N[C@H](CCN5CCOCC5)CSc5ccccc5)c(S(=O)(=O)C(F)(F)F)c4)cc3)CC2)C1 [Navitoclax] (partner 0.5 µM)
Summary of the method: as §1

Lapatinib + Decitabine = compound: CS(=O)(=O)CCNCc1ccc(-c2ccc3ncnc(Nc4ccc(OCc5cccc(F)c5)c(Cl)c4)c3c2)o1 [Lapatinib] + Nc1ncn([C@H]2C[C@H](O)[C@@H](CO)O2)c(=O)n1 [Decitabine] (partner 2 µM)
Summary of the method: as §1

Lapatinib + Pemetrexed = compound: CS(=O)(=O)CCNCc1ccc(-c2ccc3ncnc(Nc4ccc(OCc5cccc(F)c5)c(Cl)c4)c3c2)o1 [Lapatinib] + Nc1nc2[nH]cc(CCc3ccc(C(=O)N[C@@H](CCC(=O)O)C(=O)O)cc3)c2c(=O)[nH]1 [Pemetrexed] (partner 0.2 µM)
Summary of the method: as §1

Cell Line | relative viability (Wnt-C59 + Olaparib; first compound 0.001 µM) | relative viability (Wnt-C59 + Olaparib; first compound 0.01 µM) | relative viability (Wnt-C59 + Olaparib; first compound 0.03162 µM) | relative viability (Wnt-C59 + Olaparib; first compound 0.1 µM) | relative viability (Wnt-C59 + Navitoclax; first compound 0.001 µM) | relative viability (Wnt-C59 + Navitoclax; first compound 0.01 µM) | relative viability (Wnt-C59 + Navitoclax; first compound 0.03162 µM) | relative viability (Wnt-C59 + Navitoclax; first compound 0.1 µM) | relative viability (Lapatinib + Decitabine; first compound 0.06325 µM) | relative viability (Lapatinib + Decitabine; first compound 0.2 µM) | relative viability (Lapatinib + Decitabine; first compound 0.6325 µM) | relative viability (Lapatinib + Decitabine; first compound 2 µM) | relative viability (Lapatinib + Pemetrexed; first compound 0.06325 µM) | relative viability (Lapatinib + Pemetrexed; first compound 0.2 µM) | relative viability (Lapatinib + Pemetrexed; first compound 0.6325 µM) | relative viability (Lapatinib + Pemetrexed; first compound 2 µM) | relative viability (Lapatinib + Pemetrexed; first compound 0.02 µM) | relative viability (Lapatinib + Decitabine; first compound 0.02 µM)
HCC-78 | 0.883 | 0.852 | 0.855 | 0.633 | 0.781 | 0.729 | 0.731 | 0.452 | 0.58 | 0.744 | 0.765 | 0.735 | 0.832 | 0.882 | 0.841 | 0.936 |  | 
H3255 | 0.641 | 0.458 | 0.56 | 0.526 | 0.573 | 0.502 | 0.688 | 0.558 | 0.543 | 0.584 | 0.422 | 0.207 | 0.514 | 0.544 | 0.504 | 0.407 | 0.514 | 
RERF-LC-KJ | 0.787 | 0.846 | 1.12 | 0.877 | 0.899 | 0.908 | 1.01 | 1.31 | 0.62 | 0.749 | 0.645 | 0.499 | 0.472 | 0.466 | 0.444 | 0.459 | 0.39 | 0.679
HCC-44 | 0.981 | 1.02 | 0.965 | 0.92 | 1.01 | 0.904 | 1.02 | 0.954 | 0.908 | 0.964 | 1.02 | 0.797 | 0.653 | 0.651 | 0.614 | 0.685 | 0.681 | 0.838
SW 1573 | 0.449 | 0.445 | 0.551 | 0.39 | 1.03 | 1.04 | 1.09 | 0.989 | 0.437 | 0.565 | 0.633 | 0.489 | 0.716 | 0.883 | 0.882 | 0.759 |  | 0.492
NCI-H23 | 0.353 | 0.256 | 0.362 | 0.333 | 0.723 | 0.775 | 1.04 | 0.805 |  | 0.315 | 0.353 | 0.323 |  | 0.782 | 0.58 | 0.529 |  | 
HCC-15 | 0.745 | 0.73 | 0.738 | 0.667 | 0.799 | 0.708 | 0.7 | 0.76 | 0.537 | 0.677 | 0.64 | 0.568 | 0.212 | 0.223 | 0.212 | 0.203 |  | 
NCI-H1650 | 0.78 | 0.817 | 0.802 | 0.684 | 1.35 | 1.41 | 1.27 | 1.1 | 0.509 | 0.418 | 0.371 | 0.503 | 0.377 | 0.395 | 0.337 | 0.345 | 0.364 | 0.362
LU99A | 0.28 | 0.264 | 0.29 | 0.23 | 0.779 | 0.933 | 0.822 | 0.772 | 0.73 | 0.859 | 0.896 | 0.721 | 0.161 | 0.223 | 0.178 | 0.182 | 0.203 | 0.903
HOP-62 | 0.523 | 0.266 | 0.363 | 0.343 | 1.05 | 1.04 | 0.98 | 0.903 | 0.224 | 0.21 | 0.203 | 0.219 | 0.318 | 0.299 | 0.365 | 0.389 |  | 
NCI-H1793 | 0.779 | 0.734 | 1.01 | 0.841 | 0.397 | 0.398 | 0.378 | 0.95 | 0.404 | 0.418 | 0.424 | 0.44 | 0.602 | 0.889 | 0.658 | 0.535 |  | 
LXF-289 | 1.14 | 1.09 | 1.03 | 1.04 | 0.999 | 0.912 | 0.929 | 0.948 | 0.377 | 0.354 | 0.385 | 0.408 | 0.901 | 0.884 | 0.844 | 0.768 | 0.891 | 0.358
COR-L 105 | 0.708 | 0.727 | 0.684 | 0.656 | 0.905 | 0.733 | 0.878 | 1.02 | 0.538 | 0.586 | 0.613 | 0.376 | 1.16 | 0.953 | 0.68 | 0.619 | 1.09 | 0.62
HCC-827 | 0.668 | 0.594 | 0.689 | 0.587 | 1.08 | 1.04 | 1.04 | 1.02 | 0.35 | 0.348 | 0.333 | 0.295 | 0.263 | 0.285 | 0.239 | 0.202 | 0.26 | 0.239
PC-14 | 0.26 | 0.248 | 0.342 | 0.292 | 1 | 1.15 | 1.06 | 1.02 | 0.277 | 0.246 | 0.223 | 0.193 | 0.117 | 0.167 | 0.133 | 0.129 | 0.151 | 0.271
NCI-H1915 | 0.256 | 0.266 | 0.248 | 0.239 | 0.822 | 0.8 | 0.77 | 0.8 | 0.284 | 0.248 | 0.253 | 0.255 | 0.457 | 0.456 | 0.465 | 0.473 |  | 
EPLC-272H | 0.778 | 0.854 | 0.942 | 0.842 | 1.09 | 1 | 1.06 | 1.21 | 0.361 | 0.352 | 0.34 | 0.366 | 0.235 | 0.337 | 0.288 | 0.21 | 0.342 | 
